Measurements as given in patent publication US9415055B2, “Cyclic amines” (H. Lundbeck A/S, priority 2012, dated 2016).
pIC50: −log10 of the molar value.

target: P2X7 receptor (Homo sapiens (Human), UniProt Q99572); assay: P2X7 FLIPR assay: antagonism of BzATP response in 293 HEK cells stably expressing P2X7 receptor; format: cell-based; settings: FLIPR fluorescence (Fluo-4), agonist BzATP, 293 HEK cells stably transfected with P2X7 receptor
Summary of the method: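 Antagonist IC50 derived from FLIPR Tetra Fluo-4 calcium signal evoked by BzATP. Compound pre-incubation was 30 min at room temperature on P2X7-expressing HEK293 cells, seeded 24 h before in low-serum medium and dye-loaded 30 min at 37 °C then 30 min at RT.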

Sequence of P2X7 receptor (Q99572 whole entry): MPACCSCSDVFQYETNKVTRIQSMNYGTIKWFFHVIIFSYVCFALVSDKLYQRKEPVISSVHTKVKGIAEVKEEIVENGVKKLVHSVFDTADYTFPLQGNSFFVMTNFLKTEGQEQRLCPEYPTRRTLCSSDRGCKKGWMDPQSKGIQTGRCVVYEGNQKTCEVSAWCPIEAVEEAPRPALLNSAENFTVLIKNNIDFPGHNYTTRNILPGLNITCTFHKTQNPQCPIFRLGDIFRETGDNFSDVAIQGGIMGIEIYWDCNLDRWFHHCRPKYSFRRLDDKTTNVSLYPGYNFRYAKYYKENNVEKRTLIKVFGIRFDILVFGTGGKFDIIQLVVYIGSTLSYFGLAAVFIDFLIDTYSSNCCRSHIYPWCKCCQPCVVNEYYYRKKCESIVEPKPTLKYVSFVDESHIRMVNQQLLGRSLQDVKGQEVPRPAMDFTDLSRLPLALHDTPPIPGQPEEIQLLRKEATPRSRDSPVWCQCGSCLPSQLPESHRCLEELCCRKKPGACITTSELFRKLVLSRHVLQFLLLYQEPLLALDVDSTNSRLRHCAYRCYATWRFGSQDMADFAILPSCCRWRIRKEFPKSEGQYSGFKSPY

Structure (SMILES)	pIC50
O=C(NCC(c1cnc(C(F)(F)F)nc1)N1CCOCC1)c1cccc(C(F)(F)F)c1Cl (single isomer, unassigned; (+)) [(+)2-chloro-N-[2-morpholino-2-[2-(trifluoromethyl)pyrimidin-] [(+)2-Chloro-N-[2-morpholino-2-[2-(trifluoromethyl)pyrimidin-5-yl]ethyl]-3-(trifluoromethyl)benzamide]	7.77
O=C(NCC(c1cnc(C(F)(F)F)nc1)N1CCOCC1)c1ccccc1Cl (single isomer, unassigned; (+)) [(+)2-chloro-N-[2-morpholino-2-[2-(trifluoromethyl)pyrimidin-] [(+)2-Chloro-N-[2-morpholino-2-[2-(trifluoromethyl)pyrimidin-5-yl]ethyl]benzamide]	7.52
O=C(NCC(c1ccc(C(F)(F)F)nc1)N1CCOCC1)c1cccc(C(F)(F)F)c1Cl (single isomer, unassigned; (+)) [(+)2-chloro-N-[2-morpholino-2-[6-(trifluoromethyl)-3-pyridyl] [(+)2-Chloro-N-[2-morpholino-2-[6-(trifluoromethyl)-3-pyridyl]ethyl]-3-(trifluoromethyl)benzamide]	7.62
Cc1ncc(C(CNC(=O)c2cccc(Cl)c2Cl)N2CCCCC2)cn1 (single isomer, unassigned; (-)) [(−)2,3-dichloro-N-[2-(2-methylpyrimidin-5-yl)-2-(1-piperidyl] [(−)2,3-dichloro-N-(2-(2-methylpyrimidin-5-yl)-2-(piperidin-1-yl)ethyl)benzamide]	7.68
Cc1ncc(C(CNC(=O)c2cccc(Cl)c2Cl)N2CCOCC2)cn1 (single isomer, unassigned; (-)) [(−)2,3-dichloro-N-[2-(2-methylpyrimidin-5-yl)-2-morpholino-e] [(−)2,3-Dichloro-N-[2-(2-methylpyrimidin-5-yl)-2-morpholino-ethyl]benzamide]	7.57
Cn1cc(C(CNC(=O)c2cc(F)cc(Cl)c2Cl)N2CCC(F)(F)CC2)cn1 (single isomer, unassigned; (-)) [(−)2,3-dichloro-N-[2-(4,4-difluoro-1-piperidyl)-2-(1-methylp] [(−)2,3-dichloro-5-fluoro-N-(2-(4,4-difluoropiperidin-1-yl)-2-(1-methyl-1H-pyrazol-4-yl)ethyl)benzamide]	7.59
O=C(NCC(c1cnc(C(F)(F)F)nc1)N1CCC(F)(F)CC1)c1cc(F)cc(Cl)c1Cl (single isomer, unassigned; (-)) [(−)2,3-dichloro-N-[2-(4,4-difluoro-1-piperidyl)-2-[2-(triflu] [(−)2,3-dichloro-5-fluoro-N-(2-(4,4-difluoropiperidin-1-yl)-2-(2-(trifluoromethyl)pyrimidin-5-yl)ethyl)benzamide]	8.66
Cc1ncc(C(CNC(=O)c2cccc(Cl)c2Cl)N2CCC(F)CC2)cn1 (single isomer, unassigned; (-)) [(−)2,3-dichloro-N-[2-(4-fluoro-1-piperidyl)-2-(2-methylpyrim] [(−)2,3-dichloro-N-(2-(4-fluoropiperidin-1-yl)-2-(2-methylpyrimidin-5-yl)ethyl)benzamide]	7.85
O=C(NCC(c1cnc(C(F)(F)F)nc1)N1CCC(F)CC1)c1cccc(Cl)c1Cl (single isomer, unassigned; (-)) [(−)2,3-dichloro-N-[2-(4-fluoro-1-piperidyl)-2-[2-(trifluorom] [(−)2,3-dichloro-N-(2-(4-fluoropiperidin-1-yl)-2-(2-(trifluoromethyl)pyrimidin-5-yl)ethyl)benzamide]	8.33
O=C(NCC(c1cnc(C(F)F)nc1)N1CCOCC1)c1cccc(Cl)c1Cl (single isomer, unassigned; (-)) [(−)2,3-dichloro-N-[2-[2-(difluoromethyl)pyrimidin-5-yl]-2-mo] [(−)2,3-dichloro-N-(2-(2-(difluoromethyl)pyrimidin-5-yl)-2-morpholinoethyl)benzamide]	8.02
O=C(NCC(c1cnc(C(F)(F)F)nc1)N1CCOCC1)c1cccc(Cl)c1Cl (single isomer, unassigned; (-)) [(−)2,3-dichloro-N-[2-morpholino-2-[2-(trifluoromethyl)pyrimi] [(−)2,3-Dichloro-N-[2-morpholino-2-[2-(trifluoromethyl)pyrimidin-5-yl]ethyl]benzamide]	8.49
O=C(NCC(c1ccc(C(F)(F)F)nc1)N1CCOCC1)c1cccc(Cl)c1Cl (single isomer, unassigned; (-)) [(−)2,3-dichloro-N-[2-morpholino-2-[6-(trifluoromethyl)-3-pyr] [(−)2,3-Dichloro-N-[2-morpholino-2-[6-(trifluoromethyl)-3-pyridyl]ethyl]benzamide]	8.70
O=C(NCC(c1cnc(C(F)(F)F)nc1)N1CCC(F)(F)CC1)c1c(F)cc(Cl)cc1Cl (single isomer, unassigned; (-)) [(−)2,4-dichloro-N-[2-(4,4-difluoro-1-piperidyl)-2-[2-(triflu] [(−)2,4-dichloro-6-fluoro-N-(2-(4,4-difluoropiperidin-1-yl)-2-(2-(trifluoromethyl)pyrimidin-5-yl)ethyl)benzamide]	8.19
O=C(NCC(c1cnc(C(F)(F)F)nc1)N1CCC(F)(F)CC1)c1ccc(Cl)cc1Cl (single isomer, unassigned; (-)) [(−)2,4-dichloro-N-[2-(4,4-difluoro-1-piperidyl)-2-[2-(triflu] [(−)2,4-dichloro-N-(2-(4,4-difluoropiperidin-1-yl)-2-(2-(trifluoromethyl)pyrimidin-5-yl)ethyl)benzamide]	8.19
Cn1cc(C(CNC(=O)c2c(Cl)cccc2Cl)N2CCC(F)(F)CC2)cn1 (single isomer, unassigned; (-)) [(−)2,6-dichloro-N-[2-(4,4-difluoro-1-piperidyl)-2-(1-methylp] [(−)2,6-dichloro-N-(2-(4,4-difluoropiperidin-1-yl)-2-(1-methyl-1H-pyrazol-4-yl)ethyl)benzamide]	7.36

The remaining lines, values ahead:

pIC50	Structure (SMILES)
8.64	COc1cccc(C(=O)NCC(c2ccc(C(F)F)nc2)N2CCC(F)(F)CC2)c1Cl (single isomer, unassigned; (+)) [(+)2-chloro-N-[2-[6-(difluoromethyl)-3-pyridyl]-2-(4,4-diflu] [(+)2-chloro-3-methoxy-N-(2-(2-(difluoromethyl)pyridin-5-yl)-2-(4,4-difluoropiperidin-1-yl)ethyl)benzamide]
8.05	O=C(NCC(c1ccc(C(F)F)nc1)N1CCC(F)(F)CC1)c1ccccc1Cl (single isomer, unassigned; (+)) [(+)2-chloro-N-[2-[6-(difluoromethyl)-3-pyridyl]-2-(4,4-diflu] [(+)2-chloro-N-(2-(2-(difluoromethyl)pyridin-5-yl)-2-(4,4-difluoropiperidin-1-yl)ethyl)benzamide]
7.01	COc1ccccc1C(=O)NCC(c1ccc(C(F)(F)F)nc1)N1CCOCC1 (single isomer, unassigned; (+)) [(+)-2-methoxy-N-(2-morpholino-2-(6-(trifluoromethyl)pyridin-] [(+)2-1\4ethoxy-N-[2-morpholin-4-yl-2-(6-trifluoromethyl-pyridin-3-yl)-ethyl]-benzamide]
8.46	O=C(NCC(c1cnc(C2CC2)nc1)N1CCC(F)(F)CC1)c1cccc(Cl)c1Cl (single isomer, unassigned; (-)) [(−)2,3-dichloro-N-[2-(2-cyclopropylpyrimidin-5-yl)-2-(4,4-di] [(−)2,3-dichloro-N-(2-(2-cyclopropylpyrimidin-5-yl)-2-(4,4-difluoropiperidin-1-yl)ethyl)benzamide]
7.60	Cn1cc(C(CNC(=O)c2cccc(Cl)c2Cl)N2CCC(F)(F)CC2)cn1 (single isomer, unassigned; (-)) [(−)2,3-dichloro-N-[2-(4,4-difluoro-1-piperidyl)-2-(1-methylp] [(−)2,3-dichloro-N-(2-(4,4-difluoropiperidin-1-yl)-2-(1-methyl-1H-pyrazol-4-yl)ethyl)benzamide]
8.31	CCc1ncc(C(CNC(=O)c2cccc(Cl)c2Cl)N2CCC(F)(F)CC2)cn1 (single isomer, unassigned; (-)) [(−)2,3-dichloro-N-[2-(4,4-difluoro-1-piperidyl)-2-(2-ethylpy] [(−)2,3-dichloro-N-(2-(4,4-difluoropiperidin-1-yl)-2-(2-ethylpyrimidin-5-yl)ethyl)benzamide]
7.85	Cc1ncc(C(CNC(=O)c2cc(F)cc(Cl)c2Cl)N2CCC(F)(F)CC2)cn1 (single isomer, unassigned; (-)) [(−)2,3-dichloro-N-[2-(4,4-difluoro-1-piperidyl)-2-(2-methylp] [(−)2,3-dichloro-5-fluoro-N-(2-(4,4-difluoropiperidin-1-yl)-2-(2-methylpyrimidin-5-yl)ethyl)benzamide]
8.24	Cc1ncc(C(CNC(=O)c2cccc(Cl)c2Cl)N2CCC(F)(F)CC2)cn1 (single isomer, unassigned; (-)) [(−)2,3-dichloro-N-[2-(4,4-difluoro-1-piperidyl)-2-(2-methylp] [(−)2,3-dichloro-N-(2-(4,4-difluoropiperidin-1-yl)-2-(2-methylpyrimidin-5-yl)ethyl)benzamide]
8.38	O=C(NCC(c1ccc(C(F)F)nc1)N1CCC(F)(F)CC1)c1cccc(Cl)c1Cl (single isomer, unassigned; (-)) [(−)2,3-dichloro-N-[2-[6-(difluoromethyl)-3-pyridyl]-2-(4,4-d] [(−)2,3-dichloro-N-(2-(2-(difluoromethyl)pyridin-5-yl)-2-(4,4-difluoropiperidin-1-yl)ethyl)benzamide]
7.57	CCc1ncc(C(CNC(=O)c2c(Cl)cccc2Cl)N2CCC(F)(F)CC2)cn1 (single isomer, unassigned; (-)) [(−)2,6-dichloro-N-[2-(4,4-difluoro-1-piperidyl)-2-(2-ethylpy] [(−)2,6-dichloro-N-(2-(4,4-difluoropiperidin-1-yl)-2-(2-ethylpyrimidin-5-yl)ethyl)benzamide]
